Test results: ChEMBL document CHEMBL1130307, “Inhibition of Matrix Metalloproteinases: An examination of the S1 pocket” (Bioorg Med Chem Lett, 1997)

Key:
Stromelysin-1 [1] = molecular target: T1, Stromelysin-1 (Homo sapiens, UniProt P08254)
Matrilysin = molecular target: T2, Matrilysin (Homo sapiens, UniProt P09237)
T2 sequence (P09237 whole entry): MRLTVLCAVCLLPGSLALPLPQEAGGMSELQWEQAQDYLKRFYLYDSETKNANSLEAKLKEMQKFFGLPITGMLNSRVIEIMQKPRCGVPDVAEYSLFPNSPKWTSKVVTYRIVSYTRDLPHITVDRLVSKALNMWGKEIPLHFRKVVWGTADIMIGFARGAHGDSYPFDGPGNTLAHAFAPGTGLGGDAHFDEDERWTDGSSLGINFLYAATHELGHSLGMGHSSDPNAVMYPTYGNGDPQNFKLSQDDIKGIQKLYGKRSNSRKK

Stromelysin-1 [2] = molecular target: T1, Stromelysin-1; remark: listed apart in the source
Interstitial collagenase [3] = molecular target: T3, Interstitial collagenase (Homo sapiens, UniProt P03956)
T3 sequence (P03956 whole entry): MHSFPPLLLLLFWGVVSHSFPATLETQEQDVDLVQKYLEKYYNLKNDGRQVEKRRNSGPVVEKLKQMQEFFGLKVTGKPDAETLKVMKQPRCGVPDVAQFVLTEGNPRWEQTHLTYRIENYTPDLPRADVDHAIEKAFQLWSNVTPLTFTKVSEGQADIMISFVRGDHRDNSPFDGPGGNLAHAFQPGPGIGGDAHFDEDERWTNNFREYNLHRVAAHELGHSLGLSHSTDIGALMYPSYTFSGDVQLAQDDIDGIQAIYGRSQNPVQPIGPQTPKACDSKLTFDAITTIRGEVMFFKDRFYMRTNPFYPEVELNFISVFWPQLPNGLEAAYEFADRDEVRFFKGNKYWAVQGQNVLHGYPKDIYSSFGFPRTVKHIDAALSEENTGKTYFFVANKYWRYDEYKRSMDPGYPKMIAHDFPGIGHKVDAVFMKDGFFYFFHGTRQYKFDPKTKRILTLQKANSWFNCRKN

Interstitial collagenase [4] = molecular target: T3, Interstitial collagenase; remark: listed apart in the source

T1 sequence (P08254 whole entry): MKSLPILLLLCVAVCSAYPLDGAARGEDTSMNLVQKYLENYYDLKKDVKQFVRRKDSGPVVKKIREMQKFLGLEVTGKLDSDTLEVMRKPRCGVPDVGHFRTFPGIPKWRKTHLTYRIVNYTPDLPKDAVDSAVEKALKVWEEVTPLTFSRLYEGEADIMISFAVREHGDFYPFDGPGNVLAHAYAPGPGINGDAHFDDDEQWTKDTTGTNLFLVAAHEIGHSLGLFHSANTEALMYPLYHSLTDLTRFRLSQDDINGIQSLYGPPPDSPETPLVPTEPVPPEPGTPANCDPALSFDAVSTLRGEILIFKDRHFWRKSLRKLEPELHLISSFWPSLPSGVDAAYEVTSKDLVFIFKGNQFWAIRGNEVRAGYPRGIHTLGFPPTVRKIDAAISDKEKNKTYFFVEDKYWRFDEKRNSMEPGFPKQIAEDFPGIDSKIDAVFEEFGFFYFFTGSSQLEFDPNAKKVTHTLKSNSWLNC

| IC50 (Stromelysin-1 [1]) [nM] | IC50 (Matrilysin) [nM] | IC50 (Interstitial collagenase [3]) [nM] | SMILES | other results |
| --- | --- | --- | --- | --- |
| 300 | – | – | CCCCCCCCCCCCCCCC[C@H](CC(=O)NO)C(=O)N[C@@H](Cc1ccccc1)C(=O)NC | – |
| – | 500 | – | CNC(=O)[C@@H](NC(=O)[C@H](CCCCCCCCCCCCCCO)CC(=O)NO)C(C)(C)C | IC50 (Stromelysin-1 [2]): 50 nM |
| 7000 | – | – | CCCCCCCCCCCCCCC[C@H](CC(=O)O)C(=O)N[C@H](C(=O)NC)C(C)(C)C | – |
| – | 500 | – | CCCCCCCC[C@H](CC(=O)NO)C(=O)N[C@H](C(=O)NC)C(C)(C)C | IC50 (Stromelysin-1 [2]): 100 nM |
| – | 2000 | – | CCCCCCCCCCCCC[C@H](CC(=O)NO)C(=O)N[C@H](C(=O)NC)C(C)(C)C | IC50 (Stromelysin-1 [2]): 60 nM |
| 30000 | 40000 | – | CCCCCCCC[C@H](CC(=O)O)C(=O)N[C@H](C(=O)NC)C(C)(C)C | – |
| 4000 | – | – | CCCCCCCCCCCCCC[C@H](CC(=O)O)C(=O)N[C@H](C(=O)NC)C(C)(C)C | – |
| 2000 | – | – | CCCCCCCCCCCCC[C@H](CC(=O)O)C(=O)N[C@H](C(=O)NC)C(C)(C)C | – |
| 80 | – | – | CCCCCCCCCCCCCC[C@H](CC(=O)NO)C(=O)N[C@@H](Cc1ccccc1)C(=O)NC | – |

More lines, now with the values behind:

| SMILES | IC50 (Stromelysin-1 [1]) [nM] | IC50 (Matrilysin) [nM] | IC50 (Interstitial collagenase [3]) [nM] | other results |
| --- | --- | --- | --- | --- |
| CNC(=O)[C@H](Cc1ccccc1)NC(=O)[C@H](CCCc1ccccc1)CC(=O)NO | 500 | 10000 | 1000 | – |
| CCCCCCCC[C@H](CC(=O)NO)C(=O)N[C@@H](Cc1ccccc1)C(=O)NC | 450 | 1000 | 150 | – |
| CCCCCCCCC[C@H](CC(=O)O)C(=O)N[C@@H](Cc1ccccc1)C(=O)NC | 20000 | – | 7000 | – |
| CCCCCCCC[C@H](CC(=O)O)C(=O)N[C@@H](Cc1ccccc1)C(=O)NC | 5000 | – | – | – |
| CCCCCC[C@H](CC(=O)NO)C(=O)N[C@@H](Cc1ccccc1)C(=O)NC | 80 | 2000 | 20 | – |
| CCCCCCC[C@H](CC(=O)O)C(=O)N[C@@H](Cc1ccccc1)C(=O)NC | – | – | 7000 | – |
| CCCCCCCCCCCCCCCC[C@H](CC(=O)NO)C(=O)N[C@H](C(=O)NC)C(C)(C)C | – | – | – | IC50 (Stromelysin-1 [2]): 90 nM |
| CCCCCCCCC[C@H](CC(=O)NO)C(=O)N[C@H](C(=O)NC)C(C)(C)C | – | – | – | IC50 (Interstitial collagenase [4]): 375 nM |
| CCCCCCCCCCCCCCCC[C@H](CC(=O)O)C(=O)N[C@H](C(=O)NC)C(C)(C)C | – | – | – | IC50 (Stromelysin-1 [2]): 10000 nM |
| CCCCCCCCCCCC[C@H](CC(=O)NO)C(=O)N[C@@H](Cc1ccccc1)C(=O)NC | 40 | – | 50000 | – |
| CCCCCCCCCC[C@H](CC(=O)NO)C(=O)N[C@@H](Cc1ccccc1)C(=O)NC | 1000 | 2000 | 20 | – |
| CCCCCCCCCCCCCCCC[C@H](CC(=O)O)C(=O)N[C@@H](Cc1ccccc1)C(=O)NC | 50000 | – | – | – |
| CCCCCCCCCCCCCC[C@H](CC(=O)NO)C(=O)N[C@H](C(=O)NC)C(C)(C)C | – | – | – | IC50 (Stromelysin-1 [2]): 70 nM |
| CCCCCCCCC[C@H](CC(=O)NO)C(=O)N[C@@H](Cc1ccccc1)C(=O)NC | 30 | 3000 | 500 | – |
| CCCCCC[C@H](CC(=O)O)C(=O)N[C@@H](Cc1ccccc1)C(=O)NC | – | – | 20000 | – |
| CCCCCCC[C@H](CC(=O)NO)C(=O)N[C@@H](Cc1ccccc1)C(=O)NC | 40 | 2000 | 400 | – |
| CNC(=O)[C@H](Cc1ccccc1)NC(=O)[C@H](CC(C)C)[C@H](CSc1cccs1)C(=O)NO [BATIMASTAT] | – | 6 | – | – |
